Active and inactive are the calls of the source. The calls are words filed in the database; no cut-off is given here. Bridge positions count the residues as written; N and C are the ends. Peptide text beside a SMILES is read from it.
What was measured:
[1] = tested on: Escherichia coli; assay: Antimicrobial activity against Escherichia coli J23a at 1 nmol relative to control; type: functional, organism-based
[2] = tested on: Metarhizium robertsii; assay: Antifungal activity against Metarhizium robertsii at 1 nmol relative to control; type: functional, organism-based
[3] = tested on: Escherichia coli; assay: Antimicrobial activity against Escherichia coli G2b at 1 nmol relative to control; type: functional, organism-based
[4] = tested on: Staphylococcus aureus; assay: Antimicrobial activity against Staphylococcus aureus J685 at 1 nmol relative to control; type: functional, organism-based
[5] = tested on: Pseudomonas aeruginosa; assay: Antimicrobial activity against Pseudomonas aeruginosa DH at 1 nmol relative to control; type: functional, organism-based
[6] = tested on: Streptococcus salivarius; assay: Antimicrobial activity against Streptococcus salivarius ATCC 1.2498 at 1 nmol relative to control; type: functional, organism-based
[7] = tested on: Ralstonia solanacearum; assay: Antimicrobial activity against Ralstonia solanacearum at 1 nmol relative to control; type: functional, organism-based
[8] = tested on: Aspergillus niger; assay: Antifungal activity against Aspergillus niger at 1 nmol relative to control; type: functional, organism-based
[9] = tested on: Curtobacterium luteum; assay: Antimicrobial activity against Curtobacterium luteum assessed as lethal concentration; type: functional
[10] = tested on: Staphylococcus aureus; assay: Antimicrobial activity against methicillin-resistant Staphylococcus aureus P1386 at 1 nmol relative to control; type: functional, organism-based
[11] = tested on: Pseudomonas aeruginosa; assay: Antimicrobial activity against Pseudomonas aeruginosa 11082616 at 1 nmol relative to control; type: functional, organism-based
[12] = tested on: Geotrichum candidum; assay: Antifungal activity against Geotrichum candidum CCTCC AY 93038 at 1 nmol relative to control; type: functional, organism-based
[13] = tested on: Komagataella pastoris; assay: Antifungal activity against Pichia pastoris X33 at 1 nmol relative to control; type: functional, organism-based
[14] = tested on: Stenotrophomonas maltophilia; assay: Antimicrobial activity against Stenotrophomonas maltophilia CGMCC 1.1788 at 1 nmol relative to control; type: functional, organism-based
[15] = tested on: Staphylococcus; assay: Antimicrobial activity against methicillin-resistant coagulase negative Staphylococcus P1369 assessed as lethal concentration; type: functional
[16] = tested on: Lysinibacillus fusiformis; assay: Antimicrobial activity against Lysinibacillus fusiformis assessed as lethal concentration; type: functional
[17] = tested on: Beauveria bassiana; assay: Antifungal activity against Beauveria bassiana 252 at 1 nmol relative to control; type: functional, organism-based
[18] = tested on: Pseudomonas aeruginosa; assay: Antimicrobial activity against Pseudomonas aeruginosa O1 at 1 nmol relative to control; type: functional, organism-based
[19] = Retention time of the compound by RP-HPLC analysis; type: physicochemical
[20] = tested on: Pseudomonas aeruginosa; assay: Antimicrobial activity against Pseudomonas aeruginosa 11082603 at 1 nmol relative to control; type: functional, organism-based
[21] = tested on: Pseudomonas aeruginosa; assay: Antimicrobial activity against Pseudomonas aeruginosa 11092304 at 1 nmol relative to control; type: functional, organism-based
[22] = tested on: Staphylococcus aureus; assay: Antimicrobial activity against methicillin-resistant Staphylococcus aureus P1374 assessed as lethal concentration; type: functional
[23] = tested on: Salmonella enterica; assay: Antimicrobial activity against Salmonella enterica ATCC 14028 at 1 nmol relative to control; type: functional, organism-based
[24] = tested on: Pseudomonas aeruginosa; assay: Antimicrobial activity against Pseudomonas aeruginosa FRD1 at 1 nmol relative to control; type: functional, organism-based
[25] = tested on: Pseudomonas aeruginosa; assay: Antimicrobial activity against Pseudomonas aeruginosa 11092618 at 1 nmol relative to control; type: functional, organism-based
[26] = tested on: Escherichia coli; assay: Antimicrobial activity against Escherichia coli J45b at 1 nmol relative to control; type: functional, organism-based
[27] = tested on: Aspergillus flavus; assay: Antifungal activity against Aspergillus flavus at 1 nmol relative to control; type: functional, organism-based
[28] = tested on: Pseudomonas aeruginosa; assay: Antimicrobial activity against Pseudomonas aeruginosa 374 at 1 nmol relative to control; type: functional, organism-based
[29] = tested on: Priestia megaterium; assay: Antimicrobial activity against Bacillus megaterium CGMCC 1.0459 assessed as lethal concentration; type: functional
[30] = tested on: Aspergillus nidulans; assay: Antifungal activity against Aspergillus nidulans A28 at 1 nmol relative to control; type: functional, organism-based
[31] = tested on: Staphylococcus warneri; assay: Antimicrobial activity against Staphylococcus warneri ATCC 1.2824 at 1 nmol relative to control; type: functional, organism-based
[32] = tested on: Streptococcus sanguinis; assay: Antimicrobial activity against Streptococcus sanguinis ATCC 1.2497 assessed as lethal concentration; type: functional
[33] = tested on: Micrococcus luteus; assay: Antimicrobial activity against Micrococcus luteus CGMCC 1.0290 assessed as lethal concentration; type: functional
[34] = tested on: Aspergillus fumigatus; assay: Antifungal activity against Aspergillus fumigatus YJ-407 at 1 nmol relative to control; type: functional, organism-based
[35] = tested on: Pseudomonas aeruginosa; assay: Antimicrobial activity against Pseudomonas aeruginosa QT1 at 1 nmol relative to control; type: functional, organism-based
[36] = tested on: Staphylococcus aureus; assay: Antimicrobial activity against Staphylococcus aureus J685 assessed as lethal concentration; type: functional
[37] = tested on: Bacillus subtilis; assay: Antimicrobial activity against Bacillus subtilis CGMCC 1.2428 assessed as lethal concentration; type: functional
[38] = tested on: Escherichia coli; assay: Antimicrobial activity against Escherichia coli J16c at 1 nmol relative to control; type: functional, organism-based
[39] = tested on: Staphylococcus epidermidis; assay: Antimicrobial activity against penicillin-resistant Staphylococcus epidermidis P1389 assessed as lethal concentration; type: functional
[40] = tested on: Pseudomonas aeruginosa; assay: Antimicrobial activity against Pseudomonas aeruginosa at 1 nmol relative to control; type: functional, organism-based
[41] = tested on: Alcaligenes faecalis; assay: Antimicrobial activity against Alcaligenes faecalis CGMCC 1.1837 at 1 nmol relative to control; type: functional, organism-based
[42] = tested on: Escherichia coli; assay: Antimicrobial activity against Escherichia coli DH5alpha at 1 nmol relative to control; type: functional, organism-based
[43] = tested on: Escherichia coli; assay: Antimicrobial activity against Escherichia coli J14b at 1 nmol relative to control; type: functional, organism-based
[44] = tested on: Bacillus subtilis; assay: Antimicrobial activity against Bacillus subtilis CGMCC 1.2428 at 1 nmol relative to control; type: functional, organism-based
[45] = tested on: Staphylococcus epidermidis; assay: Antimicrobial activity against penicillin-resistant Staphylococcus epidermidis P1389 at 1 nmol relative to control; type: functional, organism-based
[46] = tested on: Salmonella enterica; assay: Antimicrobial activity against Salmonella enterica ATCC 14028 at 0.25 to 1 nmol; type: functional, organism-based; conditions: dose 0.25-1 nmol
[47] = tested on: Streptococcus sanguinis; assay: Antimicrobial activity against Streptococcus sanguinis ATCC 1.2497 at 1 nmol relative to control; type: functional, organism-based
[48] = tested on: Streptococcus mutans; assay: Antimicrobial activity against Streptococcus mutans ATCC 1.2499 at 1 nmol relative to control; type: functional, organism-based
[49] = tested on: Lysinibacillus fusiformis; assay: Antimicrobial activity against Lysinibacillus fusiformis at 1 nmol relative to control; type: functional, organism-based
[50] = tested on: Staphylococcus aureus; assay: Antimicrobial activity against methicillin-resistant Staphylococcus aureus P1374 at 1 nmol relative to control; type: functional, organism-based
[51] = tested on: Staphylococcus aureus; assay: Antimicrobial activity against penicillin-resistant Staphylococcus aureus P1383 at 1 nmol relative to control; type: functional, organism-based
[52] = tested on: Priestia megaterium; assay: Antimicrobial activity against Bacillus megaterium CGMCC 1.0459 at 1 nmol; type: functional, organism-based
[53] = tested on: Staphylococcus; assay: Antimicrobial activity against methicillin-resistant coagulase negative Staphylococcus P1369 at 1 nmol relative to control; type: functional, organism-based
[54] = tested on: Micrococcus luteus; assay: Antimicrobial activity against Micrococcus luteus CGMCC 1.0290 at 1 nmol relative to control; type: functional, organism-based
[55] = tested on: Curtobacterium luteum; assay: Antimicrobial activity against Curtobacterium luteum at 1 nmol relative to control; type: functional, organism-based
[56] = tested on: Erythrocyte; assay: Hemolytic activity in mouse erythrocytes assessed as hemolysis at 100 uM; type: toxicity, cell-based

For `CC[C@H](C)[C@H](NC(=O)[C@H](C)NC(=O)[C@H](CCCCN)NC(=O)[C@H](CC(N)=O)NC(=O)[C@H](CC(N)=O)NC(=O)[C@H](CS)NC(=O)[C@H](Cc1ccc(O)cc1)NC(=O)[C@H](CS)NC(=O)[C@@H](NC(=O)[C@H](C)N)[C@@H](C)O)C(=O)N[C@@H](CS)C(=O)N[C@H](C(=O)N[C@H](CS)C(=O)N[C@H](CCCNC(=N)N)C(=O)N[C@H](CCCNC(=N)N)C(N)=O)C(C)C`, the Activity [1] was “inactive”, the Activity [2] was “inactive” and the Activity [3] was “inactive”. For the same compound, the Activity [4] was “inactive”, the Activity [5] was “inactive” and the Activity [6] was “inactive”. For the same compound, the Activity [7] was “inactive”, the Activity [8] was “inactive” and the LD [9] was 0.13 µM. For the same compound, the Activity [10] was “inactive”, the Activity [11] was “inactive” and the Activity [12] was “inactive”. The Activity [13] was “inactive”, the Activity [14] was “inactive” and the LD [15] was 4.31 µM. For the same compound, the LD [16] was 5.35 µM, the Activity [17] was “inactive” and the Activity [18] was “inactive”. The Retention_time [19] was 15.2 min, the Activity [20] was “inactive” and the Activity [21] was “inactive”. The LD [22] was 14.29 µM, the Activity [23] was “inactive” and the Activity [24] was “inactive”. For the same compound, the Activity [25] was “inactive”, the Activity [26] was “inactive” and the Activity [27] was “inactive”. The Activity [28] was “inactive”, the LD [29] was 2.44 µM and the Activity [30] was “inactive”. For the same compound, the Activity [31] was “inactive”, the LD [32] was 10.4 µM and the LD [33] was 1.96 µM. The Activity [34] was “inactive”, the Activity [35] was “inactive” and the LD [36] was 8.34 µM. For the same compound, the LD [37] was 3.54 µM, the Activity [38] was “inactive” and the LD [39] was 4.1 µM. For the same compound, the Activity [40] was “inactive”, the Activity [41] was “inactive” and the Activity [42] was “inactive”. The Activity [43] was “inactive”.

With `CC[C@H](C)[C@@H]1NC(=O)[C@H](CCCCN)NC(=O)[C@H](CC(N)=O)NC(=O)[C@H](CC(N)=O)NC(=O)[C@@H]2CSSC[C@H](NC1=O)C(=O)N[C@@H](C(C)C)C(=O)N[C@H](C(=O)N[C@@H](CCCNC(=N)N)C(=O)N[C@@H](CCCNC(=N)N)C(=O)O)CSSC[C@H](NC(=O)[C@@H](NC(=O)[C@H](C)N)[C@@H](C)O)C(=O)N[C@@H](Cc1ccc(O)cc1)C(=O)N2` (H-ATCYCNNKICVCRR-OH; disulfide 3-12, 5-10) the Activity [1] was “inactive”, the Activity [2] was “inactive” and the Activity [3] was “inactive”. For the same compound, the Activity [4] was “inactive”, the Activity [5] was “inactive” and the Activity [6] was “inactive”. The Activity [7] was “inactive”, the Activity [8] was “inactive” and the LD [9] was 4.3 µM. The Activity [10] was “inactive”, the Activity [11] was “inactive” and the Activity [12] was “inactive”. The Activity [13] was “inactive”, the Activity [14] was “inactive” and the Activity [44] was “inactive”. The Activity [45] was “inactive”, the LD [15] was 5.3 µM and the Activity [17] was “inactive”. For the same compound, the Activity [18] was “inactive”, the Retention_time [19] was 16 min and the Activity [20] was “inactive”. For the same compound, the Activity [21] was “inactive”, the Activity [46] was “inactive” and the Activity [23] was “inactive”. For the same compound, the Activity [24] was “inactive”, the Activity [25] was “inactive” and the Activity [26] was “inactive”. The Activity [27] was “inactive”, the Activity [28] was “inactive” and the LD [29] was 2.58 µM. The Activity [30] was “inactive”, the Activity [31] was “inactive” and the Activity [47] was “inactive”. For the same compound, the LD [33] was 3.52 µM, the Activity [34] was “inactive” and the Activity [35] was “inactive”. The Activity [48] was “inactive”, the Activity [49] was “inactive” and the Activity [50] was “inactive”. For the same compound, the Activity [38] was “inactive”, the Activity [40] was “inactive” and the Activity [41] was “inactive”. The Activity [42] was “inactive”, the Activity [43] was “inactive” and the Activity [51] was “inactive”.

In the case of H-ATSYSNNKISVSRR-NH2, the Activity [1] is reported as “inactive”, the Activity [2] is reported as “inactive” and the Activity [3] is reported as “inactive”. For the same compound, the Activity [4] was “inactive”, the Activity [52] was “Active” and the Activity [5] was “inactive”. The Activity [6] was “inactive”, the Activity [7] was “inactive” and the Activity [8] was “inactive”. For the same compound, the Activity [10] was “inactive”, the Activity [11] was “inactive” and the Activity [12] was “inactive”. The Activity [13] was “inactive”, the Activity [14] was “inactive” and the Activity [44] was “inactive”. The Activity [45] was “inactive”, the Activity [17] was “inactive” and the Activity [18] was “inactive”. For the same compound, the Activity [20] was “inactive”, the Activity [21] was “inactive” and the Activity [23] was “inactive”. For the same compound, the Activity [24] was “inactive”, the Activity [25] was “inactive” and the Activity [26] was “inactive”. For the same compound, the Activity [27] was “inactive”, the Activity [28] was “inactive” and the Activity [30] was “inactive”. For the same compound, the Activity [53] was “inactive”, the Activity [31] was “inactive” and the Activity [47] was “inactive”. For the same compound, the Activity [54] was “inactive”, the Activity [34] was “inactive” and the Activity [35] was “inactive”. For the same compound, the Activity [48] was “inactive”, the Activity [49] was “inactive” and the Activity [50] was “inactive”. For the same compound, the Activity [38] was “inactive”, the Activity [40] was “inactive” and the Activity [41] was “inactive”. For the same compound, the Activity [55] was “inactive”, the Activity [42] was “inactive” and the Activity [43] was “inactive”. The Activity [51] was “inactive”.

With H-FFGHLFKLATKIIPSLFQ-OH the Activity [56] was “Non-Toxic”.

— ChEMBL document CHEMBL5528052, “Single Deletion Unmasks Hidden Anti-Gram-Negative Bacterial Activity of an Insect Defensin-Derived Peptide” (J Med Chem, 2024)
